From patent US4492650A, “A54556 Antibiotics and process for production thereof” (Eli Lilly and Company, priority 1982, dated 1985)
≈ marks a conversion by molar mass, not a printed value. Where “and” joins values, the source holds several entries; their conditions need not be identical. Equal entries are not always repeated. Where two headings read alike, the source gives them in different places. Bridge positions count the residues as written; N and C are the ends. Square brackets hold non-standard residues; d marks the D form. Peptide text beside a SMILES is read from it. * marks the point of attachment. ξ: configuration not given here. Octatrienoyl(2E,4E,6E) = C/C=C/C=C/C=C/C(=O)*; ξPro(4ξ-Me) = CC1CNC(C(=O)O)C1; X2 = CCC/C=C/C=C/C(=O)*; NMeA = CN[CH](C)C(=O)O

Tests used:
Culture A54556 = test: Sensitivity of Culture A54556 to antibiotics, sensitivity discs on ISP medium No. 2 agar; assay type: cell-based, Streptomyces hawaiiensis NRRL 15010; also: key: +: sensitive, zones of inhibition; -: resistant, no zones of inhibition
Procedure: The sensitivity of Culture A54556 to several antibiotics at specific concentrations was determined with sensitivity discs padded onto the surface of plates containing ISP medium No. 2 agar seeded with 2% inoculum of Culture A54556.

[1] = test system: Streptococcus sp. (Group D) X66; test: Disc-plate sensitivity; assay type: cell-based; settings: second test, Table 13; for Zone diameter: listed as B; for zone of inhibition at 300 µg/disc / zone of inhibition at 30 µg/disc: Streptococcus; for zone of inhibition at 30 µg/disc: read-out: Zone diameter, 30 mcg./disc
Bacteroides fragilis 111 = test: MIC, agar-dilution method; assay type: cell-based
From the text: (§1) Antibiotic A54556 factors A, B, C, D, E, F, G, and H have been tested and found to be active against a number of anaerobic bacteria, as recorded in Table 14, which follows, the MIC values having been determined by the agar-dilution method.

[2] = test system: Bacteroides fragilis 1877; test: MIC, agar-dilution method; assay type: cell-based
From the text: as §1

[3] = test system: Bacteroides fragilis 1936B; test: MIC, agar-dilution method; assay type: cell-based
From the text: as §1

[4] = test system: Bacteroides melaninogenicus 1856/28; test: MIC, agar-dilution method; assay type: cell-based; settings: Prevotella intermedia
From the text: as §1

[5] = test system: Bacteroides melaninogenicus 2736; test: MIC, agar-dilution method; assay type: cell-based
From the text: as §1

[6] = test system: Bacteroides thetaiotaomicron 1438; test: MIC, agar-dilution method; assay type: cell-based
From the text: as §1

[7] = test system: Clostridium difficile 2994; test: MIC, agar-dilution method; assay type: cell-based; settings: Clostridioides difficile
From the text: as §1

[8] = test system: Clostridium septicum 1128; test: MIC, agar-dilution method; assay type: cell-based
From the text: as §1

[9] = test system: Eubacterium aerofaciens 1235; test: MIC, agar-dilution method; assay type: cell-based; settings: Collinsella aerofaciens
From the text: as §1

[10] = test system: Fusobacterium necrophorum 6054A; test: MIC, agar-dilution method; assay type: cell-based
From the text: as §1

[11] = test system: Peptostreptococcus intermedius 1264; test: MIC, agar-dilution method; assay type: cell-based
From the text: as §1

[12] = test system: Propionibacterium acnes 79; test: MIC, agar-dilution method; assay type: cell-based; settings: Cutibacterium acnes
From the text: as §1

[13] = test system: Clostridium perfringens 81; test: microbe, parasite or virus in culture; assay type: cell-based
[14] = test system: Peptococcus asaccharolyticus 1302; test: MIC, agar-dilution method; assay type: cell-based; settings: Peptoniphilus asaccharolyticus
Peptococcus prevoti 1281 = test: MIC, agar-dilution method; assay type: cell-based
[15] = test system: Peptostreptococcus anaerobius 1428; test: MIC, agar-dilution method; assay type: cell-based
[16] = test system: Bacteroides vulgatis 1211; test: MIC, agar-dilution method; assay type: cell-based
[17] = test system: Bacteroides corrodens 1874; test: MIC, agar-dilution method; assay type: cell-based; settings: Eikenella corrodens
[18] = test system: Fusobacterium symbiosum 1470; test: MIC, agar-dilution method; assay type: cell-based
S. pyogenes = test: In vivo protection against experimental bacterial infection in mice; settings: Streptococcus pyogenes, sc, two doses subcutaneously
Procedure: (§2) When two doses of test compound were administered subcutaneously to mice in illustrative infections, the activity is measured as an ED50 value [effective does in mg./kg. to protect fifty percent of the test animals: See Warren Wick et al., J. Bacteriol. 81, 233-235 (1961)]. The ED50 values for these antibiotic A54556 factors are recorded in Table 15, which follows.

Electrometric titration = assay type: physicochemical; settings: 66 percent dimethylformamide in water
From the text: Antibiotic A54556 factor A is a tan, amorphous solid. […] As determined by electron impact and field desorption mass spectrometry, A54556 factor A has a molecular weight of 718.

anaerobic bacteria = test: Activity against anaerobic bacteria; assay type: cell-based; settings: agar-dilution method
[19] = test system: experimental bacterial infections; test: In vivo antimicrobial activity against experimental bacterial infections; settings: mice, subcutaneously
Procedure: as §2

[20] = test system: Staphylococcus aureus 3055; settings: second test, Table 13, benzylpenicillin-susceptible
[21] = test system: Streptococcus pyogenes (Group A) C203; settings: second test, Table 13
[22] = test system: Streptococcus pneumoniae Park I; settings: second test, Table 13
[23] = test system: Staphylococcus aureus V41; settings: second test, Table 13, benzylpenicillin resistant
[24] = test system: Staphylococcus epidermidis EPI1; settings: second test, Table 13

Compound	Antibiotic Sensitivity of Culture A54556 (Culture A54556; 30 mcg. disc)	zone of inhibition at 30 µg/disc [1] [mm]	MIC (Bacteroides fragilis 111) [µg/mL]	MIC [2] [µg/mL]	MIC [3] [µg/mL]	MIC [4] [µg/mL]	MIC [5] [µg/mL]	MIC [6] [µg/mL]	MIC [7] [µg/mL]	MIC [8] [µg/mL]	MIC [9] [µg/mL]	MIC [10] [µg/mL]	MIC [11] [µg/mL]	MIC [12] [µg/mL]	MIC [13] [µg/mL]	MIC [17] [µg/mL]	ED50 (S. pyogenes) [mg/kg]	titratable groups (Electrometric titration)	activity against a number of anaerobic bacteria (anaerobic bacteria)	in vivo antimicrobial activity against experimental bacterial infections [19]	further results
CC(=O)OCC1=C(C(=O)O)N2C(=O)[C@@H](NC(=O)Cc3cccs3)[C@H]2SC1 [Cephalothin]	-																				
O=C(N[C@H](CO)[C@H](O)c1ccc([N+](=O)[O-])cc1)C(Cl)Cl [Chloromycetin (CAP), Chloromycetin]	trace																				
CC[C@H]1OC(=O)[C@H](C)[C@@H](O[C@H]2C[C@@](C)(OC)[C@@H](O)[C@H](C)O2)[C@H](C)[C@@H](O[C@@H]2O[C@H](C)C[C@H](N(C)C)[C@H]2O)[C@](C)(O)C[C@@H](C)C(=O)[C@H](C)[C@@H](O)[C@]1(C)O [Erythromycin]																					Antibiotic Sensitivity of Culture A54556 (Culture A54556; 15 mcg. disc): -
C/C=C/C=C/C=C/C(=O)NC(Cc1ccccc1)C(=O)NC1COC(=O)C2CCCN2C(=O)C(C)NC(=O)C(C)N(C)C(=O)C2CCCN2C1=O (centres unmarked) [Factor B] ({Octatrienoyl(2E,4E,6E)}-FSP[NMeA]AP; ester 2-C; configuration not given here)		22	32 (≈ 45.4 µM)	> 128	16 (≈ 22.7 µM)	> 128	> 128	16 (≈ 22.7 µM)	> 128	16 (≈ 22.7 µM)	16 (≈ 22.7 µM)	16 (≈ 22.7 µM)	> 128	> 128	16 (≈ 22.7 µM)	> 128	> 70	no titratable groups	active	have shown in vivo antimicrobial activity	Zone diameter ([1]; 30 mcg./disc): 23 mm.; Zone diameter ([1]; 300 mcg./disc): 27 mm.; zone of inhibition at 300 µg/disc ([1]; 300 mcg./disc, read-out: Zone diameter): 30 mm; MIC ([14]; agar-dilution, read-out: MIC): 8 µg/mL (≈ 11.4 µM); MIC (Peptococcus prevoti 1281; agar-dilution, read-out: MIC): 8 µg/mL (≈ 11.4 µM); MIC ([15]; agar-dilution, read-out: MIC): 8 µg/mL (≈ 11.4 µM); MIC ([16]; agar-dilution, read-out: MIC): 32 µg/mL (≈ 45.4 µM); MIC ([18]; agar-dilution, read-out: MIC): 8 µg/mL (≈ 11.4 µM); Zone diameter ([20]; 30 mcg./disc): 18 mm. and 20 mm.; Zone diameter ([20]; 300 mcg./disc): 26 mm.; Zone diameter ([21]; 30 mcg./disc, listed as B): 18 mm. and 26 mm.; Zone diameter ([21]; 300 mcg./disc, listed as B): 24 mm. and 30 mm.; Zone diameter ([22]; 30 mcg./disc): 25 mm.; Zone diameter ([22]; 30 mcg./disc, listed as B): 20 mm.; Zone diameter ([22]; 300 mcg./disc): 32 mm.; Zone diameter ([22]; 300 mcg./disc, listed as B): 35 mm.; Zone diameter ([23]; 30 mcg./disc): 15 mm. and 18 mm.; Zone diameter ([23]; 300 mcg./disc): 19 mm. and 26 mm.; Zone diameter ([24]; 30 mcg./disc, listed as B): 13 mm. and 16 mm.; Zone diameter ([24]; 300 mcg./disc, listed as B): 21 mm. and 27 mm.
CCC/C=C/C=C/C(=O)NC(Cc1ccccc1)C(=O)NC1COC(=O)C2CCCN2C(=O)C(C)NC(=O)C(C)N(C)C(=O)C2CC(C)CN2C1=O (centres unmarked) [Factor D] (X2-FS[ξPro(4ξ-Me)][NMeA]AP; ester 2-C; configuration not given here)		26	> 128	> 128	> 128	> 128	> 128	> 128	> 128	> 128	> 128	> 128	> 128	> 128	> 128	> 128	> 70	no titratable groups	active	have shown in vivo antimicrobial activity	zone of inhibition at 300 µg/disc ([1]; read-out: Zone diameter, 300 mcg./disc): 33 mm; MIC [14]: 128 µg/mL (≈ 178 µM); MIC (Peptococcus prevoti 1281): > 128 µg/mL; MIC [15]: 128 µg/mL (≈ 178 µM); MIC [16]: > 128 µg/mL; MIC [18]: > 128 µg/mL; Zone diameter ([20]; 30 mcg./disc): 29 mm.; Zone diameter ([20]; 300 mcg./disc): 30 mm.; Zone diameter ([21]; 30 mcg./disc): 24 mm.; Zone diameter ([21]; 300 mcg./disc): 32 mm.; Zone diameter ([22]; 30 mcg./disc): 30 mm.; Zone diameter ([22]; 300 mcg./disc): 34 mm.; Zone diameter ([23]; 30 mcg./disc): 27 mm.; Zone diameter ([23]; 300 mcg./disc): 28 mm.; Zone diameter ([24]; 30 mcg./disc): 25 mm.; Zone diameter ([24]; 300 mcg./disc): 34 mm.
